Data published in PubChem BioAssay AID210 (DTP/NCI, 2004).
“And” between values parts separate entries of the source, which are not always exact repeats. Identical values can stand only once. Inconclusive results and toxic doses are left out.

Tested on: CD2F1 mice, ip Colon 26 adenocarcinoma, median survival T/C
Experiment: NCI In Vivo Anticancer Drug Screen. Data for tumor model Colon 26 Adenocarcinoma (intraperitoneal) in CD2F1 (CDF1) mice
Details: endpoint: median survival time, higher = longer survival
Method: The antitumor activity of compounds was measured in mice bearing transplantable tumors. Survival or tumor size were measured and the results are expressed as the measurement made in the treated group (T) divided by the measurement made in the vehicle treated control group (C). The tumor model used in this assay is Colon 26 Adenocarcinoma (intraperitoneal) in CD2F1 (CDF1) mice

[1] = dose: 12.5 mg/kg/injection, schedule: Q04DX003 (ip), vehicle: saline with Tween-80
[2] = dose: 25.0 mg/kg/injection, schedule: Q04DX003 (ip), vehicle: saline with Tween-80
[3] = dose: 50.0 mg/kg/injection, schedule: Q04DX003 (ip), vehicle: saline with Tween-80
[4] = dose: 100.0 mg/kg/injection, schedule: Q04DX003 (ip), vehicle: saline with Tween-80
[5] = dose: 200.0 mg/kg/injection, schedule: Q04DX003 (ip), vehicle: saline with Tween-80
[6] = dose: 12.5 mg/kg/injection, schedule: Q04DX003 (ip), vehicle: saline
[7] = dose: 25.0 mg/kg/injection, schedule: Q04DX003 (ip), vehicle: saline
[8] = dose: 50.0 mg/kg/injection, schedule: Q04DX003 (ip), vehicle: saline
[9] = dose: 100.0 mg/kg/injection, schedule: Q04DX003 (ip), vehicle: saline
[10] = dose: 200.0 mg/kg/injection, schedule: Q04DX003 (ip), vehicle: saline
[11] = dose: 400.0 mg/kg/injection, schedule: Q04DX003 (ip), vehicle: saline
[12] = dose: 25.0 mg/kg/injection, schedule: Q04DX003 (ip), vehicle: Klucel (hydroxypropylcellulose) (HPC)
[13] = dose: 50.0 mg/kg/injection, schedule: Q04DX003 (ip), vehicle: Klucel (hydroxypropylcellulose) (HPC)

## C1CCC2[N-]CC3CCCCC3[N-]CC3CCCCC3[N-]CC3CCCCC3[N-]CC2C1.[Cu] (configuration not stated)
dose: 0.63 mg/kg/injection, schedule: Q04DX003 (ip), vehicle: Klucel (hydroxypropylcellulose) (HPC)
  T/C: 110 % of control
dose: 1.25 mg/kg/injection, schedule: Q04DX003 (ip), vehicle: Klucel (hydroxypropylcellulose) (HPC)
  T/C: 107 % of control
dose: 2.5 mg/kg/injection, schedule: Q04DX003 (ip), vehicle: Klucel (hydroxypropylcellulose) (HPC)
  T/C: 105 % of control
dose: 5.0 mg/kg/injection, schedule: Q04DX003 (ip), vehicle: Klucel (hydroxypropylcellulose) (HPC)
  T/C: 111 % of control
dose: 10.0 mg/kg/injection, schedule: Q04DX003 (ip), vehicle: Klucel (hydroxypropylcellulose) (HPC)
  T/C: 122 % of control
dose: 20.0 mg/kg/injection, schedule: Q04DX003 (ip), vehicle: Klucel (hydroxypropylcellulose) (HPC)
  T/C: 111 % of control

## Cc1ccc(S(=O)(=O)N/N=C/C(=O)O)cc1
[1]
  T/C: 174 % of control
[2]
  T/C: 177 % of control
[3]
  T/C: 212 % of control
[4]
  T/C: 196 % of control
[5]
  T/C: 193 % of control

## COc1ccc2cc1Oc1ccc(cc1)C[C@H]1c3cc(c(OC)cc3CCN1C)Oc1c(OC)c(OC)cc3c1[C@H](C2)N(C)CC3
[1]
  T/C: 92 % of control
[2]
  T/C: 101 % of control
[3]
  T/C: 92 % of control
[4]
  T/C: 94 % of control
[5]
  T/C: 101 % of control

## CC[C@](O)(C(=O)O)c1cc2n(c(=O)c1CO)Cc1cc3ccccc3nc1-2
dose: 6.25 mg/kg/injection, schedule: Q04DX003 (ip), vehicle: saline
  T/C: 114 % of control
[6]
  T/C: 111 % of control
[7]
  T/C: 121 % of control

## CSc1cc(=O)n2c3ccccc3c3ccnc1c32
dose: 2.5 mg/kg/injection, schedule: Q04DX003 (ip), vehicle: saline with Tween-80
  T/C: 100 % of control
dose: 5.0 mg/kg/injection, schedule: Q04DX003 (ip), vehicle: saline with Tween-80
  T/C: 115 % of control
dose: 20.0 mg/kg/injection, schedule: Q04DX003 (ip), vehicle: saline with Tween-80
  T/C: 151 % of control

## COc1cc(C[C@H]2c3cc(OC)c(OC)cc3CCN2C)c(Oc2cc3c(cc2OC)-c2c(OC)c(OC)cc4c2[C@H](C3)N(C)CC4)cc1OC
[7]
  T/C: 89 % of control
[8]
  T/C: 95 % of control
[9]
  T/C: 90 % of control
[10]
  T/C: 93 % of control
[11]
  T/C: 95 % of control

## Nc1ncnc2c1ccn2C1OC(CO)C(O)C1O (configuration not stated)
dose: 0.5 mg/kg/injection, schedule: Q04DX003 (ip), vehicle: Klucel (hydroxypropylcellulose) (HPC)
  T/C: 98 % of control
dose: 1.0 mg/kg/injection, schedule: Q04DX003 (ip), vehicle: Klucel (hydroxypropylcellulose) (HPC)
  T/C: 119 % of control
dose: 2.0 mg/kg/injection, schedule: Q04DX003 (ip), vehicle: Klucel (hydroxypropylcellulose) (HPC)
  T/C: 118 % of control
dose: 4.0 mg/kg/injection, schedule: Q04DX003 (ip), vehicle: Klucel (hydroxypropylcellulose) (HPC)
  T/C: 115 % of control

## CC(=O)OC1C2(CC3N4C(=O)C5(CO)SSC4(CC31O)C(=O)N5C)OC(C)C(C)(C)C2=O (configuration not stated)
dose: 1.25 mg/kg/injection, schedule: Q04DX002 (ip), vehicle: saline
  T/C: 97 % of control
dose: 2.5 mg/kg/injection, schedule: Q04DX002 (ip), vehicle: saline
  T/C: 108 % of control
dose: 5.0 mg/kg/injection, schedule: Q04DX002 (ip), vehicle: saline
  T/C: 87 % of control

## Cc1cn(C2CC(O)C(CO)O2)c(=O)[nH]c1=O (configuration not stated)
[6]
  T/C: 98 % of control
[7]
  T/C: 98 % of control
[8]
  T/C: 98 % of control
dose: 64.0 mg/kg/injection, schedule: Q04DX002 (ip), vehicle: suspension in saline
  T/C: 101 % of control
[9]
  T/C: 96 % of control and 100 % of control
dose: 128.0 mg/kg/injection, schedule: Q04DX002 (ip), vehicle: saline
  T/C: 88 % of control
dose: 128.0 mg/kg/injection, schedule: Q04DX002 (ip), vehicle: suspension in saline
  T/C: 100 % of control
[10]
  T/C: 99 % of control and 100 % of control
dose: 256.0 mg/kg/injection, schedule: Q04DX002 (ip), vehicle: suspension in saline
  T/C: 94 % of control
[11]
  T/C: 116 % of control and 98 % of control
dose: 512.0 mg/kg/injection, schedule: Q04DX002 (ip), vehicle: suspension in saline
  T/C: 94 % of control
dose: 1024.0 mg/kg/injection, schedule: Q04DX002 (ip), vehicle: saline
  T/C: 92 % of control
dose: 1024.0 mg/kg/injection, schedule: Q04DX002 (ip), vehicle: suspension in saline
  T/C: 95 % of control

## CCOC(=O)Nc1cc2c(c(N)n1)N=C(CN(C)c1ccccc1)CN2
dose: 6.25 mg/kg/injection, schedule: Q04DX003 (ip), vehicle: Klucel (hydroxypropylcellulose) (HPC)
  T/C: 108 % of control
[12]
  T/C: 177 % of control
[13]
  T/C: 119 % of control

## CC(=O)[C@]1(O)Cc2c(O)c3c(c(O)c2[C@@H](OC2CC(N)C(O)C(C)O2)C1)C(=O)c1c(O)cccc1C3=O (some centres not stated)
dose: 0.7 mg/kg/injection, schedule: Q07DX003 (iv), vehicle: water
  T/C: 106 % of control
dose: 1.1 mg/kg/injection, schedule: Q07DX003 (iv), vehicle: water
  T/C: 124 % of control
dose: 1.8 mg/kg/injection, schedule: Q07DX002 (iv), vehicle: water
  T/C: 157 % of control
dose: 1.8 mg/kg/injection, schedule: Q07DX003 (iv), vehicle: water
  T/C: 157 % of control
dose: 2.8 mg/kg/injection, schedule: Q07DX002 (iv), vehicle: water
  T/C: 183 % of control
dose: 2.8 mg/kg/injection, schedule: Q07DX003 (iv), vehicle: water
  T/C: 187 % of control
dose: 4.2 mg/kg/injection, schedule: Q07DX002 (iv), vehicle: water
  T/C: 104 % of control
dose: 600.0 micrograms/kg/injection, schedule: Q04DX003 (ip), vehicle: water
  T/C: 92 % of control

## COc1cccc2c1C(=O)c1c(O)c3c(c(O)c1C2=O)C[C@@](O)(C(C)=O)C[C@@H]3OC1CC(N(Cc2ccccc2)Cc2ccccc2)C(O)C(C)O1 (some centres not stated)
dose: 3.0 mg/kg/injection, schedule: Q04DX002 (ip), vehicle: saline with Tween-80
  T/C: 104 % of control

## COC1C(O)C(C)OC(OC2C(Oc3cccc4c(O)c5c(=O)oc6ccc(C)c7c(=O)oc(c34)c5c67)OC(C)C(O)C2O)C1O (configuration not stated)
dose: 12.5 mg/kg/injection, schedule: Q04DX002 (ip), vehicle: Klucel (hydroxypropylcellulose) (HPC)
  T/C: 105 % of control and 112 % of control
dose: 12.5 mg/kg/injection, schedule: Q04DX003 (ip), vehicle: Klucel (hydroxypropylcellulose) (HPC)
  T/C: 106 % of control
dose: 25.0 mg/kg/injection, schedule: Q04DX002 (ip), vehicle: Klucel (hydroxypropylcellulose) (HPC)
  T/C: 107 % of control and 118 % of control
[12]
  T/C: 116 % of control
dose: 50.0 mg/kg/injection, schedule: Q04DX002 (ip), vehicle: Klucel (hydroxypropylcellulose) (HPC)
  T/C: 106 % of control
[13]
  T/C: 106 % of control
dose: 100.0 mg/kg/injection, schedule: Q04DX002 (ip), vehicle: Klucel (hydroxypropylcellulose) (HPC)
  T/C: 107 % of control and 100 % of control
dose: 100.0 mg/kg/injection, schedule: Q04DX003 (ip), vehicle: Klucel (hydroxypropylcellulose) (HPC)
  T/C: 110 % of control

## CC1(C)CC23C4COC(=O)C2CCC1C3CC4=O (configuration not stated)
dose: 36.0 mg/kg/injection, schedule: Q04DX003 (ip), vehicle: DMSO
  T/C: 99 % of control
dose: 62.5 mg/kg/injection, schedule: Q04DX002 (ip), vehicle: saline with Tween-80
  T/C: 109 % of control
dose: 72.0 mg/kg/injection, schedule: Q04DX003 (ip), vehicle: DMSO
  T/C: 93 % of control
dose: 125.0 mg/kg/injection, schedule: Q04DX002 (ip), vehicle: saline with Tween-80
  T/C: 91 % of control
dose: 144.0 mg/kg/injection, schedule: Q04DX003 (ip), vehicle: DMSO
  T/C: 94 % of control
